Converted amounts (≈) assume the structure as drawn. “And” between values parts separate entries of the source, which are not always exact repeats. Identical values can stand only once. Like-named read-outs stand apart in the source and are kept apart here.
Tests used:
M. avium complex [1] = conditions: statement in discussion; cited from earlier work
[2] = test system: wild type M. tuberculosis; format: cell-based, Mycobacterium tuberculosis
M. kansasii = test: microbe, parasite or virus in culture; format: cell-based; conditions: Mycobacterium kansasii, read-out: MIC Median values
M. smegmatis = test: MIC against M. smegmatis; format: cell-based, Mycobacterium smegmatis; conditions: Mycolicibacterium smegmatis, 7 strains, read-out: MIC Median values
From the text: Table. 1 The minimum inhibitory concentrations (MICs) of the lead DARQ compound (J), that inhibited 90% of the growth of different mycobacterial species. the number of strains tested were n=1, unless otherwise indicated.

Streptococcus pneumoniae = format: cell-based; conditions: Gram positive Streptococcus pneumoniae
M. marinum = test: microbe, parasite or virus in culture; format: cell-based; conditions: Mycobacterium marinum, read-out: MIC Median values
[3] = test system: M. tuberculosis in log-phase growth; format: cell-based, Mycobacterium tuberculosis
M. fortuitum = test: microbe, parasite or virus in culture; format: cell-based, Mycobacterium fortuitum
M. bovis = test: microbe, parasite or virus in culture; format: cell-based; conditions: Mycobacterium tuberculosis variant bovis, read-out: MIC Median values
[4] = test system: M. smegmatis transformed with mutant atpE (D32V); format: cell-based; conditions: wild-type M. smegmatis transformed with plasmid containing mutant F0 fragment (D32V); MIC practically identical to resistant strain R09
M. abscessus = test: microbe, parasite or virus in culture; format: cell-based, Mycobacterium abscessus; conditions: Mycobacteroides abscessus, read-out: MIC Median values
Haemophilus influenzae = format: cell-based; conditions: Gram negative Haemophilus influenzae
M. avium complex [5] = test: microbe, parasite or virus in culture; format: cell-based; conditions: Mycobacterium avium, 7 strains, read-out: MIC Median values
Nocardia = test: microbe, parasite or virus in culture; format: cell-based
M. tuberculosis = test: microbe, parasite or virus in culture; format: cell-based; conditions: Mycobacterium tuberculosis
Corynebacterium = test: microbe, parasite or virus in culture; format: cell-based
Escherichia coli = format: cell-based; conditions: Gram negative Escherichia coli
[6] = test system: MDR-TB strains and fully drug-susceptible strains; format: cell-based, Mycobacterium tuberculosis
Enterococcus faecalis = format: cell-based; conditions: Gram positive Enterococcus faecalis
Helicobacter pylori = format: cell-based; conditions: Gram negative Helicobacter pylori
Staphylococcus aureus = test: microbe, parasite or virus in culture; format: cell-based; conditions: Staphylococcus aureus including methicillin-resistant strains

## NNC(=O)c1ccncc1 [isoniazid]
M. avium complex [1]
  activity against MAC: no activity
[2]
  effect on ATP production (total cellular ATP): no effect

## COc1nc2ccc(Br)cc2cc1[C@@H](c1ccccc1)[C@@](O)(CCN(C)C)c1cccc2ccccc12 [J]
M. kansasii
  MIC: 3 ng/mL (≈ 0.0054 µM)
M. smegmatis
  MIC: 7 ng/mL (≈ 0.0126 µM)
Streptococcus pneumoniae
  activity: not active
M. marinum
  MIC: 3 ng/mL (≈ 0.0054 µM)
[3]
  reduction in bacterial counts: 10^3 log
M. fortuitum; M. fortuitum resistant to fluoroquinolone, 2 strains
  MIC Median values: 0.010 µg/mL (≈ 0.018 µM)
M. fortuitum; Mycolicibacterium fortuitum, M. fortuitum, 3 strains, read-out: MIC Median values
  MIC: 0.01 µg/mL (≈ 0.018 µM)
M. bovis
  MIC: 3 ng/mL (≈ 0.0054 µM)
[4]
  susceptibility of transformed cells: resistant
[2]
  effect on ATP production (total cellular ATP): dose dependent decrease in ATP production
M. abscessus
  MIC: 0.25 µg/mL (≈ 0.45 µM)
Haemophilus influenzae
  activity: not active
M. avium complex [5]
  MIC: 0.01 µg/mL (≈ 0.018 µM)
Nocardia
  MIC: > 4 µg/mL
M. tuberculosis; H37RV, read-out: MIC Median values
  MIC: 0.03 µg/mL (≈ 0.054 µM)
M. tuberculosis; read-out: median MIC
  MIC: 0.06 µg/mL (≈ 0.108 µM)
Corynebacterium
  MIC: 4 µg/mL (≈ 7.2 µM)
Escherichia coli
  activity: not active
[6]
  isolates of MDR-TB found susceptible: 43% and 57%
  strains with MIC below 0.010 μg/ml: only one of 10
  susceptibility of strains: all strains were susceptible
Enterococcus faecalis
  activity: not active
Helicobacter pylori
  activity: not active
Staphylococcus aureus
  MIC: > 32 µg/mL
